According to US11834453B2, “Substituted pyrimido[5,4-d]pyrimidines as HER2 inhibitors” (Array BioPharma Inc., priority 2020, dated 2023):
Where two headings read alike, the source gives them in different places.

How the values were obtained:
[1] = target: ErbB2 insYVMA (HER2-YVMA, SEQ ID NO: 2) (Homo sapiens, UniProt P04626, INS775YVMA/P1170A); assay: biochemical; conditions: ErbB2 insYVMA enzyme assay
ErbB2 WT = ErbB2 WT (Homo sapiens (Human), UniProt P04626); assay: ErbB enzyme assay (CisBio HTRF KinEASE-TK), Assay 2; format: biochemical
Summary of the method: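 ErbB2 phosphorylates 250 nM biotin-TK substrate at 1 mM ATP in 25 mM HEPES pH 7.4, 10 mM MgCl2, 0.01% Triton X-100 and 2% DMSO, for 30 min at 22 °C. Product is detected by HTRF with Sa-XL665 and TK-Ab-Cryptate. Percent of control is set by DMSO-only wells and pre-quenched wells.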

EGFR = EGFR (Homo sapiens (Human), UniProt P00533); assay: ErbB enzyme assay (CisBio HTRF KinEASE-TK), Assay 3; format: biochemical
EGFR, sequence (P00533 25-1210): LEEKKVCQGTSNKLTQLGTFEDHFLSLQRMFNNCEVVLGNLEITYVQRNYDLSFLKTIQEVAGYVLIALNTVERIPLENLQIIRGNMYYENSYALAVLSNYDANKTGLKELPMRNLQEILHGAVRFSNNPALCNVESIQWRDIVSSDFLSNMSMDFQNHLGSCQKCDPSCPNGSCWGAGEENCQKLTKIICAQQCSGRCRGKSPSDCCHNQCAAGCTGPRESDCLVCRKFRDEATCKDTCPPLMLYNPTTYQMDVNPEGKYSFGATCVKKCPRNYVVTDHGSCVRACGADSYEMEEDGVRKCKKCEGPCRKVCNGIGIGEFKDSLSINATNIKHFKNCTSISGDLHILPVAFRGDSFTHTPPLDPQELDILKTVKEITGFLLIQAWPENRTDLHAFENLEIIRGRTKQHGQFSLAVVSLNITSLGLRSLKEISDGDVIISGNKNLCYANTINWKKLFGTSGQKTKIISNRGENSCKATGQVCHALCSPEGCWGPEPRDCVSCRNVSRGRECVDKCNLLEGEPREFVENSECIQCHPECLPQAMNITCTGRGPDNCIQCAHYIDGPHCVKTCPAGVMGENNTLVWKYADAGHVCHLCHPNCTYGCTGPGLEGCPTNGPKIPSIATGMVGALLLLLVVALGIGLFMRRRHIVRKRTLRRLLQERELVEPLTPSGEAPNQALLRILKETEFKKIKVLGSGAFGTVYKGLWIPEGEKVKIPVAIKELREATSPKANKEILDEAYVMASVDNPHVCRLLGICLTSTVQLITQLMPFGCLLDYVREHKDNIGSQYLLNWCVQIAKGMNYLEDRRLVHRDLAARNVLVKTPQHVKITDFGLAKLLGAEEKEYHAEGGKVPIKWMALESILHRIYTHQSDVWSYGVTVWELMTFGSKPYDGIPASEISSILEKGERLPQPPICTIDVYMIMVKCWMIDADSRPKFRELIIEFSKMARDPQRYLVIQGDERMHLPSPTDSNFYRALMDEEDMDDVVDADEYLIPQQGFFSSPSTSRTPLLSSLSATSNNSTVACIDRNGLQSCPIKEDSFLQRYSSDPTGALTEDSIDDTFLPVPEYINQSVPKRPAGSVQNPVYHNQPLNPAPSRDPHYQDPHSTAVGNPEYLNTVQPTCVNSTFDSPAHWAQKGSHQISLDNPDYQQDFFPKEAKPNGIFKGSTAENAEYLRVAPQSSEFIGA
Summary of the method: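 HTRF KinEASE-TK assay: kinase with 250 nM biotinylated TK-substrate and 1 mM ATP in 25 mM HEPES pH 7.4, 10 mM MgCl2, 0.01% Triton X-100, 2% DMSO, 30 min at 22 °C. Quenched with Sa-XL665/TK-Ab-Cryptate, read after 1 h. IC50 from 4-parameter fit of percent of control.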

[2] = target: ErbB2 with Exon 20 YVMA insertion (HER2-YVMA) (Homo sapiens (Human), UniProt P04626, INS775YVMA); assay: Cellular phosphorylation assay, constitutive ErbB2 phosphorylation (Y1196) in engineered NIH 3T3 cells, Assay 4; format: cell-based
Summary of the method: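 Engineered NIH 3T3 cells expressing HER2-YVMA treated with compounds 1 h at 37 °C, then formaldehyde-fixed and methanol-permeabilized. pErbB2 Y1196 detected by in-cell infrared immunofluorescence, normalized to GAPDH. IC50 from the normalized curves.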

EGFR wild type (EGFR WT) = EGFR wild type (EGFR WT) (Homo sapiens (Human), UniProt P00533); assay: Cellular phosphorylation assay, EGF-stimulated EGFR phosphorylation in engineered NIH 3T3 cells, Phospho-EGFR DuoSet IC ELISA, Assay 5; format: cell-based
EGFR wild type (EGFR WT), sequence (P00533 25-1210): as above
Summary of the method: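 NIH 3T3 cells expressing EGFR WT (20,000/well, attached overnight) were exposed to serially diluted compound for 1 h at 37 °C, then stimulated with 100 ng/ml rEGF for 10 min. Phospho-EGFR in lysates measured by sandwich ELISA optical density; IC50 from curves.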

MDR1 (P-gp) = MDR1 (P-gp) (Homo sapiens (Human), UniProt P08183); assay: MDR1 transfected LLC-PK1 permeability/efflux, Assay 6; conditions: pig
MDR1 (P-gp), sequence (P08183 whole entry): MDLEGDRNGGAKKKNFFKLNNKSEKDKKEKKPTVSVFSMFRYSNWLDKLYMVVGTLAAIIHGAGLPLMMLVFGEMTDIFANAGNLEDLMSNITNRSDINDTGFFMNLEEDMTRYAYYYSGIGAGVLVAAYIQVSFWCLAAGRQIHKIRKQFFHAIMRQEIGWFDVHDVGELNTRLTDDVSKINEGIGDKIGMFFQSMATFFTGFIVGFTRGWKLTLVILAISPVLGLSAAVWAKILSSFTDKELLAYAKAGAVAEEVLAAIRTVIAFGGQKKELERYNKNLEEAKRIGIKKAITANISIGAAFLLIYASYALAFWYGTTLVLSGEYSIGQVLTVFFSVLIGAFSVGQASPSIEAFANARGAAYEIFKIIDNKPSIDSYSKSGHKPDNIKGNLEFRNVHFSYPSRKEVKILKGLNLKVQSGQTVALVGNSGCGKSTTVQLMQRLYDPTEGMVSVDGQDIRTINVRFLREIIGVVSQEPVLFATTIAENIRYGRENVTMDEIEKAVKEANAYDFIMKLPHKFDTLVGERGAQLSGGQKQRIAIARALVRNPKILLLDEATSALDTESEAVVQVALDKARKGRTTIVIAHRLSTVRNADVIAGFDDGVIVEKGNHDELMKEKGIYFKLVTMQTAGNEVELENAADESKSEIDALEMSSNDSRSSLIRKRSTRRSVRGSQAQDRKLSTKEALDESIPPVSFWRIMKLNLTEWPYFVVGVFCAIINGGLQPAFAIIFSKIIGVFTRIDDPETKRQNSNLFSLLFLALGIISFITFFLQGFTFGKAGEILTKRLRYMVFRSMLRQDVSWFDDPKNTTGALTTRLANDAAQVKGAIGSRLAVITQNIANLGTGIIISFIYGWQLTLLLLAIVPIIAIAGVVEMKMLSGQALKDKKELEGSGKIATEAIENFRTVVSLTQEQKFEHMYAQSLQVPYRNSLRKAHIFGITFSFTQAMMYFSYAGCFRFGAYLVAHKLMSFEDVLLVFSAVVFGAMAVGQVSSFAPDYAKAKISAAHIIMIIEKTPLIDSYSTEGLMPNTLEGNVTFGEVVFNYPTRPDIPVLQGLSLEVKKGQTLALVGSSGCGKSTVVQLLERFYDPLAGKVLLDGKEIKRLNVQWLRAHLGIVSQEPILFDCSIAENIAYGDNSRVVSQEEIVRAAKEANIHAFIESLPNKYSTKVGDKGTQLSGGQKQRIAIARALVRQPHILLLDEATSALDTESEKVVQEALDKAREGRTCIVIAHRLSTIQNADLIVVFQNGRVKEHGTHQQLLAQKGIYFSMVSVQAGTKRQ

BCRP = BCRP (Homo sapiens (Human), UniProt Q9UNQ0); assay: BCRP transfected MDCKII canine Mdr1 knockout permeability/efflux, Assay 9; conditions: dog
BCRP, sequence (Q9UNQ0 whole entry): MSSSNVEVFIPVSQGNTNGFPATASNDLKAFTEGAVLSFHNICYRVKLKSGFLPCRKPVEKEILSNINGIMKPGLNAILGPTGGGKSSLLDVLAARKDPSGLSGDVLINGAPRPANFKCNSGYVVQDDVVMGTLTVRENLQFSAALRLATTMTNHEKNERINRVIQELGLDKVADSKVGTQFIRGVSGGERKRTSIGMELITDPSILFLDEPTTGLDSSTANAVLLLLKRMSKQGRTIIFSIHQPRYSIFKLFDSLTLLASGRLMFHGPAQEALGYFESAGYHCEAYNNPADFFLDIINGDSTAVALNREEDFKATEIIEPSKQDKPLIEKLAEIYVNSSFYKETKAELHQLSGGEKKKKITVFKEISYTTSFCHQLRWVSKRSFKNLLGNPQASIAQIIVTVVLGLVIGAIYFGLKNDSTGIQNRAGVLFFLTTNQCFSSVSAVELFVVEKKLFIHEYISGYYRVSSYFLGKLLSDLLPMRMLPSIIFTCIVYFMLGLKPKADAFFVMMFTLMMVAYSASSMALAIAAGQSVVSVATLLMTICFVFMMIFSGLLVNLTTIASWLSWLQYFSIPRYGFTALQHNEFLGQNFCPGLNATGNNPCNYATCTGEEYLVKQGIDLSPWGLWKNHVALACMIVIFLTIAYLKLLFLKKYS

[3] = LLC-PK1, Assay 6 Pe Ratio, efflux ratio Papp(B-A)/Papp(A-B), MDR1 transfected LLC-PK1
[4] = Assay 9 Pe Ratio, efflux ratio Papp(B-A)/Papp(A-B), BCRP transfected MDCKII canine Mdr1 knockout

SMILES | IC50 ([1]; read-out: Assay 1 IC50) | IC50 (ErbB2 WT) | IC50 (EGFR) | IC50 [2] | IC50 (EGFR wild type (EGFR WT)) | efflux ratio at 2 h, 1 μM (MDR1 (P-gp); [3]) | efflux ratio at 2 h, 1 μM (BCRP; [4]) | IC50 ([1]; Assay 1 IC50 (nM)) | efflux ratio at 2 h, 1 μM (MDR1 (P-gp); LLC-PK1) | efflux ratio at 2 h, 1 μM (BCRP)
Cc1cc(Nc2ncnc3cnc(-c4ccccn4)nc23)ccc1Oc1ccc2c(c1)ncn2C [Example 239] | 127 nM | 107 nM | ≥ 10000 nM | 9.1 nM | ≥ 5000 nM | 2.1 | 3.5 |  |  | 
Cc1cc(Nc2ncnc3cnc(N4C(C)CCS4(=O)=O)nc23)ccc1Oc1ccc2c(c1)ncn2C.O=C(O)C(F)(F)F (stereo not drawn) [Example 79, 3-methyl-2-(8-((3-methyl-4-((1-methyl-1H-benzo[d]imidazol-5-yl)oxy)phenyl)amino)pyrimido[5,4-d]pyrimidin-2-yl)isothiazolidine 1,1-dioxide 2,2,2-trifluoroacetate] |  | 33.8 nM | 3490 nM | 7.7 nM | ≥ 5000 nM | 7.1 | 9.8 | 26.3 nM |  | 
Cc1cc(Nc2ncnc3cnc(-c4ccncc4)nc23)ccc1Oc1ccc2c(c1)ncn2C [Example 47, N-(3-methyl-4-((1-methyl-1H-benzo[d]imidazol-5-yl)oxy)phenyl)-6-(pyridin-4-yl)pyrimido[5,4-d]pyrimidin-4-amine bis(2,2,2-trifluoroacetate)] | 59.6 nM | 91 nM | ≥ 10000 nM | 13.4 nM | ≥ 5000 nM | 1.1 | 2.3 |  |  | 
Cc1cc(Nc2ncnc3cnc(N4C[C@H]5CC[C@@H]4CO5)nc23)ccc1Oc1ccc2c(c1)ncn2C [Example 54, 6-((1R,4R)-2-oxa-5-azabicyclo[2.2.2]octan-5-yl)-N-(3-methyl-4-((1-methyl-1H-benzo[d]imidazol-5-yl)oxy)phenyl)pyrimido[5,4-d]pyrimidin-4-amine] | 5.6 nM | 31.3 nM | 3430 nM | 17.8 nM | ≥ 5000 nM | 1.4 | 1.1 |  |  | 
Cc1cc(Nc2ncnc3cnc(-c4cnco4)nc23)ccc1Oc1ccc2c(c1)ncn2C [Example 48, N-(3-methyl-4-((1-methyl-1H-benzo[d]imidazol-5-yl)oxy)phenyl)-6-(oxazol-5-yl)pyrimido[5,4-d]pyrimidin-4-amine] | 56.6 nM | 189 nM | ≥ 10000 nM | 48.5 nM | ≥ 5000 nM | 1.6 | 7.2 |  |  | 
Cc1cc(Nc2ncnc3cnc(N4CCC45COC5)nc23)ccc1Oc1cc(F)c2c(c1)ncn2C [Example 216, N-(4-((7-fluoro-1-methyl-1H-benzo[d]imidazol-5-yl)oxy)-3-methylphenyl)-6-(6-oxa-1-azaspiro[3.3]heptan-1-yl)pyrimido[5,4-d]pyrimidin-4-amine] | 33.2 nM | 48.6 nM | 2360 nM | 15.7 nM | ≥ 5000 nM |  |  |  | 1.7 | 0.9
Cc1cc(Nc2ncnc3cnc(N4CCOC(C)(C)C4)nc23)ccc1Oc1ccc2c(c1)ncn2C [Example 272] | 67.3 nM | 104 nM | 9000 nM | 40.2 nM | ≥ 5000 nM | 1.6 | 0.6 |  |  | 
[2H]C([2H])([2H])Nc1ncc2ncnc(Nc3ccc(Oc4ccc5c(c4)ncn5C)c(C)c3)c2n1 [Example 65, N2-(methyl-d3)-N8-(3-methyl-4-((1-methyl-1H-benzo[d]imidazol-5-yl)oxy)phenyl)pyrimido[5,4-d]pyrimidine-2,8-diamine] | 8.6 nM | 23 nM | 3000 nM | 8.8 nM | ≥ 5000 nM | 1.6 | 1.9 |  |  | 
Cc1cc(Nc2ncnc3cnc(N4CC[C@H](C(F)F)C4)nc23)ccc1Oc1ccc2c(c1)ncn2C [Example 252] | 92.9 nM | 242 nM | ≥ 10000 nM | 25.7 nM | ≥ 5000 nM | 0.7 | 2.6 |  |  | 
